Activity calls are given as the source filed them. The calls are words filed in the database; no cut-off is given here.
Tests used:
[1] = target: G-protein coupled receptor 84 (Homo sapiens, UniProt Q9NQS5); test: Antagonist activity at human GPR84 expressed in HEK293 cells co-expressing Galpha16 assessed as inhibition of 6-OAU induced calcium response incubated for 10 mins by calcium mobilization assay; assay type: functional, cell-based
Mus musculus [2] = test: Protection against C57BL/6 mouse model of LPS-induced acute […] injury assessed as reduction in total cells in BALF at 100 mg/kg, po pre-treated with compound for 30 mins followed by LPS-stimulation for 12 hrs and measured 24 hrs post LPS stimulation by flow cytometric analysis; assay type: functional, organism-based; details: time 24.5 hrs
Mus musculus [3] = test: (§1) Protection against C57BL/6 mouse model of LPS-induced acute […] injury assessed as reduction in CD45positive immune cells in BALF at 100 mg/kg, po pre-treated with compound for 30 mins followed by LPS-stimulation for 12 hrs and measured 24 hrs post LPS stimulation by flow cytometric analysis; assay type: functional, organism-based; details: time 24.5 hrs
Mus musculus [4] = test: as §1, with “CD11bpositive myeloid” for “immune”; assay type: functional, organism-based; details: time 24.5 hrs
Mus musculus [5] = test: as §1, with “CD11bpositive Ly6Gpositive neutrophils” for “immune cells”; assay type: functional, organism-based; details: time 24.5 hrs
Mus musculus [6] = test: Protection against C57BL/6 mouse model of LPS-induced acute […] injury assessed as amelioration of pulmonary congestion at 100 mg/kg, po pre-treated with compound for 30 mins followed by LPS-stimulation for 12 hrs and measured 24 hrs post LPS stimulation by H&E staining based analysis; assay type: functional, organism-based; details: time 24.5 hrs
Mus musculus [7] = test: Protection against C57BL/6 mouse model of LPS-induced acute […] injury assessed as amelioration of thickening of alveolar wall at 100 mg/kg, po pre-treated with compound for 30 mins followed by LPS-stimulation for 12 hrs and measured 24 hrs post LPS stimulation by H&E staining based analysis; assay type: functional, organism-based; details: time 24.5 hrs
Mus musculus [8] = test: Protection against C57BL/6 mouse model of LPS-induced acute […] injury assessed as amelioration of […] edema at 100 mg/kg, po pre-treated with compound for 30 mins followed by LPS-stimulation for 12 hrs and measured 24 hrs post LPS stimulation by H&E staining based analysis; assay type: functional, organism-based; details: time 24.5 hrs

G-protein coupled receptor 84, sequence (Q9NQS5 whole entry): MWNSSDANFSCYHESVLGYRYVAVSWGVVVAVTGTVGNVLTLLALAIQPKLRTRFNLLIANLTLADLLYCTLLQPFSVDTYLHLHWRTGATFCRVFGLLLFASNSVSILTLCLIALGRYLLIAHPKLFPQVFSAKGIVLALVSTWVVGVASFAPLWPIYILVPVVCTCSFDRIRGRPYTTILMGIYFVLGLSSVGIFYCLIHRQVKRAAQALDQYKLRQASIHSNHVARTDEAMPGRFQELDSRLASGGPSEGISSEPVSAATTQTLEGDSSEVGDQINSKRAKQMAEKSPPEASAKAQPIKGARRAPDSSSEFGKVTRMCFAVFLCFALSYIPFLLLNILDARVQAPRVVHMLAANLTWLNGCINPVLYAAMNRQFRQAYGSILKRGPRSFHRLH

Structure (SMILES)	IC50 [1]	other results
COc1cccc2c1Sc1ccccc1C=C2OP(=O)(O)OC	2830 nM	
COc1cccc2c1Sc1ccccc1C=C2OP(=O)(O)O[C@@H]1C[C@H](C)CC[C@H]1C(C)C	68 nM	
COc1cccc2c1Sc1ccccc1C=C2OP(=O)(O)Oc1ccc2ccccc2c1	609 nM	
CCOC(=O)[C@H](CS)NC(C)=O		Activity (Mus musculus [2]): Active; Activity (Mus musculus [3]): Active; Activity (Mus musculus [4]): Active; Activity (Mus musculus [5]): Active; Activity (Mus musculus [6]): Active; Activity (Mus musculus [7]): Active; Activity (Mus musculus [8]): Active
COc1cccc2c1Sc1ccccc1C=C2OP(=O)(O)O[C@H]1C[C@@H](C)CC[C@@H]1C(C)C	91 nM	
COc1cccc2c1Sc1ccccc1C=C2OP(=O)(O)Oc1cccc2ccccc12	130 nM	
COc1cccc2c1Sc1ccccc1C=C2OP(=O)(O)OC1CCC(C)CC1 (stereo unspecified)	4010 nM	
CC1(C)[C@@H]2CC[C@@](C)(C2)[C@@H]1OP(=O)(O)OC1=Cc2ccccc2Sc2ccccc21	166 nM	
COc1cccc2c1Sc1ccccc1C=C2OP(=O)(O)OC1CCCCC1C (stereo unspecified)	1730 nM	
COc1cccc2c1Sc1ccccc1C=C2OP(=O)(O)Oc1cc(C(C)C)ccc1C	196 nM	
COc1cccc2c1Sc1ccccc1C=C2OP(=O)(O)OC1CC1	39500 nM	
COc1cccc2c1Sc1ccccc1C=C2OP(=O)(O)Oc1cc(C)ccc1C(C)C	658 nM	
CC1(C)[C@@H]2CC[C@@](C)(C2)[C@@H]1OP(=O)(O)O[C@@H]1C(C)(C)[C@@H]2CC[C@@]1(C)C2	29600 nM	
CC1(C)[C@@H]2CC[C@@](C)(C2)[C@@H]1OP(=O)(O)OC1=Cc2ccccc2Sc2c(OC(F)(F)F)cccc21	12 nM	
COc1cccc2c1Sc1ccccc1C=C2OP(=O)(O)OC12CC3CC(CC(C3)C1)C2	340 nM	
CCCCCCCCP(=O)(O)OC1=Cc2ccccc2Sc2c(OC)cccc21	219 nM	
CCCCCCOP(=O)(O)OC1=Cc2ccccc2Sc2c(OC)cccc21	325 nM	
COc1cccc2c1Sc1ccccc1C=C2OP(=O)(O)OC1C(C)(C)CCCC1(C)C	110 nM	
CCOCCOCCOP(=O)(O)OC1=Cc2ccccc2Sc2c(OC)cccc21	21800 nM	
CC/C=C\CCCCOP(=O)(O)OC1=Cc2ccccc2Sc2c(OC)cccc21	517 nM	
COc1cccc2c1Sc1ccccc1C=C2OP(=O)(O)OC1CCOC1 (stereo unspecified)	3990 nM	
CC1(C)[C@@H]2CC[C@@](C)(C2)[C@@H]1OP(=O)(O)OC1=Cc2c(F)cccc2Sc2ccccc21	554 nM	
CC1(C)[C@@H]2CC[C@@](C)(C2)[C@@H]1OP(=O)(O)OC1=Cc2ccccc2Oc2ccccc21	711 nM	
CCCCCCCCCOP(=O)(O)OC1=Cc2ccccc2Sc2c(OC)cccc21	194 nM	
COc1cccc2c1Sc1ccccc1C=C2OP(=O)(O)OC12CC3CC(C)(CC(C)(C3)C1)C2	126 nM	

From ChEMBL document CHEMBL5380862, “Unsymmetrical Phosphodiesters as GPR84 Antagonists with High Blood Exposure for the Treatment of Lung Inflammation” (J Med Chem, 2023)
